From patent US20040082554A1, “Neuroactive steroid derivatives and method of use” (priority 2003, published 2004)
Entries after “also recorded” stand apart in the source; their conditions may differ.

Assays:
[1] = tested on: NMDA receptor; test: NMDA-induced striatal dopamine release, in vivo microdialysis; set-up: species or system rat
Method: In vivo Microdialysis. Prior to surgery the animals were anesthetized with sodium pentobarbital (50 mg/kg, i.p) and placed in a stereotaxic apparatus (David Kopf Instruments). A rostro-caudal incision was then made to expose the dorsal surface of the skull. A hole was drilled in the skull above the striatum with a stereotaxic drill (+0.5 mm A/P and +2.9 mm M/L relative to bregma, (Paxinos and Watson, 1997). Two other holes were drilled in the skull where screws were secured. A dialysis guide cannula (CMA Microdialysis; Acton, Mass.) was lowered 3 mm ventrally and was then secured to the skull with dental cement. All rats were housed in individual cages following surgery.
No less than two days after surgery, the rats were briefly anesthetized with isoflurane to facilitate the removal of the dummy from the guide cannula and insertion of a microdialysis probe (CMA 10, dialysis membrane length of 2 mm of polycarbonate, with a molecular weight cut off of 20 kD) into the striatum. Animals were allowed to recover for 15 min prior to the initiation of the experiment following probe insertion. Artificial cerebrospinal fluid (aCSF) was pumped through the dialysis probe at a rate of 2 μl/min. Twelve 20 min samples were collected over 240 min and immediately stored at −20° C. The first six 20 min samples were collected to establish the baseline concentration of dopamine. […] At this point the perfusate for the DMSO group was changed from aCSF to one of the following solutions: NMDA (1 mM) or NMDA (1 mM) plus D-AP5 (100-200 μM). The perfusate for the steroid group was switched from aCSF to NMDA (1 mM). After collection of sample 7, the perfusate was switched back to aCSF and 5 more 20 min samples were collected. Upon termination of the experiment, samples were stored at −80° C. until analysis.
All samples were analyzed using high pressure liquid chromatography (HPLC) with electrochemical detection (ESA; Chelmsford, Mass.). The mobile phase consisted of 50 mM Na2HPO4, 20 mM citric acid, 1.5 mM heptanosulfonic acid, 0.1 mM EDTA, and 5% methanol at pH 4.0. The dopamine was separated on a 15 cm reverse phase C-18 column (Alltech; Deerfield, Ill.) and oxidized at a potential of 175 mV. Dopamine concentrations per sample were normalized to an external standard curve and plotted as percentage change from baseline.

[2] = tested on: mice; test: Tail flick test (latency to remove the tail from the light source); format: in vivo; settings: for dose dependence of tail flick latency: mice, 5, 10 or 15 mg/kg i.p., tested every 10 min for 120 min
Method: FIG. 9. […] Following the injection the mice were tested for every 10 min for 120 min. The latency to remove the tail from the light source was used as a measure of analgesia. […] The values are mean+SEM for 10-15 mice for each group. Data were analyzed using a one-way ANOVA followed by Fisher's LSD.* Denotes significance compared to control.
FIG. 10. […] Mice were injected with PACME (5, 10 or 15 mg/kg). Following the injection the mice were tested for every 10 min for 120 min. The latency to remove the tail from the light source was used as a measure of analgesia. […] Data were analyzed using a one-way ANOVA followed by Fisher's LSD. The values are mean±SEM for 10-15 mice for each group.* Denotes significance compared to control.
The data were analyzed using a one-way ANOVA followed by Fisher's LSD.

[3] = tested on: NMDA receptor; test: Behavioral hyperactivity (horizontal activity) induced by intra-striatal microinjection of NMDA; format: in vivo, rat
Method: Microinjection Experiments. Rats were anesthetized with sodium pentobarbital (50 mg/kg, i.p.) and placed in a stereotaxic apparatus (David Kopf Instruments). A rostro-caudal incision was then made to expose the dorsal surface of the skull. Two bilateral holes were drilled above the striatum (+1.0 mm A/P, +3.0 mm M/L, −3.0 mm D/V relative to bregma, Paxinos and Watson, 1997) and guide cannulae (9 mm, 24 gauge) were implanted and fastened to the skull using screws and dental cement. All rats were housed in individual cages following surgery. Three days post surgery rats were habituated to the photocell apparatus (AccuScan Instruments; Columbus, Ohio) for two hours. On the day of the experiment rats were rehabituated for one hour prior to the start of the experiment. […] The animals were returned to the behavior boxes and activity was monitored continuously for 60 min.
Horizontal activity was measured in 5 min blocks for 60 min immediately following microinjection. The data were analyzed with a mixed factors analysis of variance (ANOVA) with repeated measures over time in FIG. 4A. […] The data in FIG. 4B represent the 10 min time point from FIG. 4A and was analyzed using a one-way ANOVA.

[4] = tested on: NMDA receptors; settings: in vitro studies, Park-Chung et al., 1994; cited from earlier work
[5] = tested on: rats; test: Cocaine sensitization (horizontal activity after daily cocaine injections); format: in vivo, rat
Method: Cocaine Sensitization. Rats were habituated to the photocell apparatus (AccuScan Instruments; Columbus, Ohio) for two hours and administered saline (i.p.) one day prior to the start of the experiment. On the first day of the experiment, rats were rehabituated to the behavior boxes for one hour prior to the start of the experiment. […] Horizontal activity was measured for 2 hours after every cocaine injection. Saline-cocaine or 3α5βHS-cocaine were administered daily on 7 consecutive days.

## NC(CCCP(=O)(O)O)C(=O)O [D-AP5]
[1]; 100 μM or 200 μM co-perfused with 1 mM NMDA
  effect on NMDA-induced increase in extracellular striatal dopamine: inhibited; also recorded: attenuated in a dose-dependent manner

## CC(=O)[C@H]1CC[C@H]2[C@@H]3CC[C@@H]4C[C@H](OCC(=O)O)CC[C@]4(C)[C@H]3CC[C@]12C [PACME, pregnanolone carboxy methyl ether]
[2]; PACME 10 mg/kg
  tail flick latency at 90 and 120 min: increased the latency
[2]; PACME 7 and 10 mg/kg, at 20, 30, 40, 60 min following injection
  analgesia compared to control (pair-wise analysis): significant levels of analgesia
[2]; PACME, dose not stated, cut-off time 10 seconds
  lengthening of tail flick latency relative to cut-off time: near maximal lengthening of the latency time
[2]
  dose dependence of tail flick latency: increased the latency to remove the tail from the light source dose-dependently
[2]; tail flick, mice
  duration of analgesic effect compared with morphine (2 mg/kg, s.c.): longer lasting
[2]; tail flick, mice, PACME vs morphine 2 mg/kg s.c.
  analgesia compared with morphine: analgesia similar to that of morphine

## CN1CC[C@]23c4c5ccc(O)c4O[C@H]2[C@@H](O)C=C[C@H]3[C@H]1C5 [morphine, reference compound]
[2]; morphine 2 mg/kg s.c.
  time of greatest analgesic effect following injection: 20 min
[2]; morphine 2 mg/kg s.c., from 20 min to 60 or 90 min following injection
  analgesia compared to control (pair-wise analysis): significant levels of analgesia

## CC(=O)[C@H]1CC[C@H]2[C@@H]3CC[C@@H]4C[C@H](O)CC[C@]4(C)[C@H]3CC[C@]12C [pregnanolone]
[1]; 160 μg/kg i.p. (sub-sedative dose)
  effect on NMDA-induced increase in extracellular striatal dopamine: had no effect
[1]; 160 μg/kg i.p. (sub-sedative dose), listed as Pregnanolone
  effect on NMDA-induced increase in extracellular striatal dopamine: no influence

## pregnanolone hemisuccinate [3α5βHS]
[3]; 10 mg/kg i.p., any time point
  sedation (saline+3α5βHS vs saline+vehicle horizontal activity): did not induce sedation
[3]; 1 and 10 mg/kg i.p. 10 min prior to intra-striatal NMDA, 10 min time point
  effect on NMDA-induced behavioral activation (horizontal activity): decrease in horizontal activity; also recorded: blocked
[1]; 5, 10 and 20 mg/kg i.p., 20 and 40 min following NMDA perfusion
  effect on NMDA-induced increase in extracellular striatal dopamine: inhibits NMDA-induced dopamine release; also recorded: blocked
[1]; i.p. injection, 1 mM NMDA perfusion, at 20 min
  EC50 for inhibition of NMDA-induced dopamine release: 4 mg/kg
[4]
  action on NMDA receptors in vitro: inhibits NMDA receptors
[5]; 10 mg/kg i.p. 10 min prior to each of 7 daily cocaine injections (15 mg/kg i.p.)
  effect on development of behavioral sensitization to cocaine: inhibits the initiation of behavioral sensitization to cocaine; also recorded: inhibited the development of behavioral sensitization to cocaine
[5]; highest dose used
  effect on behavioral hyperactivity induced by saline administration or an acute cocaine injection: had no effect
[2]; 3α5βHS 15 mg/kg, compared to the other groups
  tail flick latency at 90 and 120 min: effective in increasing the latency
[2]; 10 and 15 mg/kg i.p., at 20, 30, 40, 60, 90 min
  analgesia compared to control (pair-wise analysis): significant levels of analgesia
[2]
  dose dependence of tail flick latency: dose-dependent increase in tail flick latency; also recorded: increased the latency to remove the tail from the light source dose-dependently
[2]; tail flick, mice
  duration of analgesic effect compared with morphine (2 mg/kg, s.c.): longer lasting
